Assay results from patent US9604974B2, “Compounds as modulator of JAK-STAT pathway, methods and applications thereof” (UNIVERSITY OF MYSORE, priority 2015, dated 2017).

Key:
[1] = tested on: Bcl-2, Bcl-xL, Survivin, ICAM-1, Bid, Cyclin D1, Bak; experiment: Western blot of STAT3-regulated gene products; format: cell-based, human; conditions: HepG2, 10 μMol/L CIMO
Description: (§1) FIG. 3 depicts comparative study of cell viability between STAT3-siRNA transfected and Compound 1 (CIMO) treated HepG2 cells [A]. Correspondingly, Western Blot analysis is used to assess the levels of phospho-STAT3 and STAT3 in HepG2 cells with siRNA-mediated depletion STAT3 expression and on exposure to 4 μM CIMO. Whole cell extract is prepared and resolved on SDS-PAGE gel, electrotransferred onto nitrocellulose membrane, and probed for phospho-STAT3 and the same blot is stripped and reprobed with STAT3 antibody and Beta actin to verify equal protein loading. [B] showcases the modulation of STAT3 mediated transcription, α2-M promoter activity by Compound 1 (CIMO) in HepG2 cells. [C] depicts the inhibition of IL-6-induced phosphorylation of STAT3, JAK1 and JAK2 by Compound 1 (CIMO). Hep3B cells (5×10^5/mL) are treated with 10 μMol/L CIMO for the indicated times and then stimulated with IL-6 (10 ng/mL) for about 15 minutes. Whole-cell extracts are then prepared, resolved on SDS-PAGE gel, electrotransferred onto nitrocellulose membrane and probed with phospho-STAT3, phospho-JAK1 and phospho-JAK2 antibodies. The same blot is stripped and reprobed with STAT3, JAK1 and JAK2 antibody to verify equal protein loading. [D] and [E], showcases the suppression of STAT3 regulated gene products involved in cell proliferation and survival by Compound 1 (CIMO). […]
To detect STAT3-regulated proteins and PARP, cells (2×10^6/ml) are treated with CIMO for the indicated times as shown in respective FIGS. 3E, 3D and 4A. […] Whole-cell extract protein (30 μg) is resolved on SDS-PAGE, electrotransferred onto a nitrocellulose membrane, blotted with antibodies against survivin, Bcl-2, Bcl-xL, cyclin D1, Bak, Bid, ICAM-1, procaspase-3, and PARP and then detected by chemiluminescence (ECL; GE Healthcare, Little Chalfont, Buckinghamshire, UK).

SHP-1, SHPTP-2, PTP1B = experiment: Western blot of tyrosine phosphatase expression; format: cell-based, human; conditions: HepG2, CIMO up to 4 hours
[2] = tested on: AGS (gastric cancer cell line); experiment: MTT anti-proliferative assay, AGS; format: cell-based; conditions: Homo sapiens
Description: (§2) The anti-proliferative activity of Formula I compounds are studied on HepG2 cells using MTT assay. Briefly, the cells (2.5×10^4/ml) are incubated in triplicate in a 96-well plate in the presence or absence of different concentrations of compounds in a final volume of 0.2 ml up to 72 hours at 37° C. Thereafter, 20 μl MTT solution (5 mg/ml in PBS) is added to each well. After 2 hours of incubation at 37° C., 0.1 ml lysis buffer (20% SDS, 50% dimethyl-formamide) is added; incubation is continued overnight at 37° C.; and the optical density (OD) at 570 nm is measured by Tecan plate reader.
(§3) Additionally, Compound 1 is tested on a panel of six cell lines including Hep3B, PLC/PRF5, AGS (gastric cancer cell line), DU145 (prostrate cancer cell line), MDA MB231 (breast cancer cell line) and CAL27 (head and neck cancer cell line) cells.

Hep3B = experiment: MTT anti-proliferative assay, Hep3B; format: cell-based; conditions: Homo sapiens
Description: as §2, §3

JAK1 = experiment: Western blot of constitutive phospho-JAK1 in HepG2; format: cell-based, human; conditions: HepG2, 10 μMol/L CIMO
HepG2 cells = experiment: CXCL12-induced wound migration assay; format: cell-based, human; conditions: 5 μM CIMO, presence and absence of CXCL12, versus controls
Description: STAT3 targeted gene products are known to be involved in cancer cell migration. FIG. 5A interprets the movement of cancer cells in the presence and absence of CIMO and C—X—C motif chemokine 12 (CXCL12) protein. CXCL12 is a chemokine which essentially stimulates the swift migration of cancer cells. An IBIDI culture insert (IBIDI GmbH) is developed with two reservoirs separated by a 500 μm thick wall created by a culture insert in a 35 mm petri dish. 70 μl of HepG2 cells (5×10^5 cells/ml) are added into the two reservoirs of the same insert and incubated at about 37° C. After 12 hours, the insert is gently removed by creating a gap of ˜500 μm. The cells are treated with about 5 μM CIMO for about 8 hours before being exposed to about 100 ng/mL CXCL12 for about 24 hours. Width of wound is measured at time zero and 24 hours of incubation with and without CIMO in the absence or presence of CXCL12. Graphs are plotted against the percentage of migration or distance the cells moved before and after treatment, normalized to control.

JAK2 = experiment: IL-6 induced JAK2 phosphorylation in Hep3B; format: cell-based; conditions: 10 μMol/L CIMO, IL-6 10 ng/mL
Description: as §1

PLC/PRF5 = experiment: MTT anti-proliferative assay, PLC/PRF5; format: cell-based; conditions: Homo sapiens, PLC-PRF-5
Description: as §2, §3

## COc1ccc(C2CNC(c3cn(Cc4ccc(-c5ccccc5C#N)cc4)c4ccccc34)OC23CCCCC3)cc1 (stereo not shown) [Compound 1]
[1]
  expression of Bcl-2, Bcl-xL, Survivin, ICAM-1, Bid and Cyclin D1: Down-regulation
  time of maximum activity on Bak expression: 36 h
[1]; time-dependent
  expression of pro-apoptotic protein Bak: upregulation
SHP-1, SHPTP-2, PTP1B
  levels of SHP-1, SHPTP-2, PTP1B: no change
[2]
  IC50: 36.9 µM
Hep3B
  IC50: 46.9 µM
JAK1
  phosphorylation of JAK1: significant inhibition
HepG2 cells
  limitation of HepG2 cell migration: ~50%
JAK2
  IL-6 induced phosphorylation of JAK2: substantially down-regulates
PLC/PRF5
  IC50: 38.8 µM
